Where “and” joins values, the source holds several entries; their conditions need not be identical. Identical values can stand only once. Like-named read-outs stand apart in the source and are kept apart here.
How the values were obtained:
[1] = test system: P. falciparum Dd2-2D4; test: P. falciparum asexual blood stage (ABS) growth assay, SYBR Green, 72 h, wild-type parasites; type: cell-based, Plasmodium falciparum; conditions: Plasmodium falciparum, DD2; SI Fig 16b; values on -log scale; read-out: ABS - Dd2-2D4 (converted)
[2] = target: T1, PfcProRS (Plasmodium falciparum, UniProt Q8I5R7); type: binding; conditions: single replicates
T1 construct: made in house; host or cells: E. coli SoluBL-21
T1 sequence (Q8I5R7 249-746): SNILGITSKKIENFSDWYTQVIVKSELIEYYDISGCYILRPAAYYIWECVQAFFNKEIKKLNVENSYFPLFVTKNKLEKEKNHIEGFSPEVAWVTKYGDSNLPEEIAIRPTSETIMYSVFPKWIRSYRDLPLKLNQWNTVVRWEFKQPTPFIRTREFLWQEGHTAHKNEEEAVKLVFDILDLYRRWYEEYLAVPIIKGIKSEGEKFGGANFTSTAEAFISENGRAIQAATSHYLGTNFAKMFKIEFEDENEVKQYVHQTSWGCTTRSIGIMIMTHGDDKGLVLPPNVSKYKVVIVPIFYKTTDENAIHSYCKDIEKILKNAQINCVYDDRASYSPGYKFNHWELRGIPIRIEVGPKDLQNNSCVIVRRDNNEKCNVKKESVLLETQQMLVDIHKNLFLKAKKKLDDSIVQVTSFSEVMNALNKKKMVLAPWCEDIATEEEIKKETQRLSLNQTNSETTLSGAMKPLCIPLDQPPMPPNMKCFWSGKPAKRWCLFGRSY

[3] = target: HsProRS (Homo sapiens, UniProt P07814); test: TR-FRET ligand displacement assay with tracer MAT379 (CoraFluor-1-Halo and anti-His6 antibody formats); type: binding; set-up: made in house; host or cells: E. coli SoluBL-21; conditions: for TR-FRET dose-response, normalized signal (SI Fig 11): individual replicates
Chain of HsProRS (P07814 996-1512): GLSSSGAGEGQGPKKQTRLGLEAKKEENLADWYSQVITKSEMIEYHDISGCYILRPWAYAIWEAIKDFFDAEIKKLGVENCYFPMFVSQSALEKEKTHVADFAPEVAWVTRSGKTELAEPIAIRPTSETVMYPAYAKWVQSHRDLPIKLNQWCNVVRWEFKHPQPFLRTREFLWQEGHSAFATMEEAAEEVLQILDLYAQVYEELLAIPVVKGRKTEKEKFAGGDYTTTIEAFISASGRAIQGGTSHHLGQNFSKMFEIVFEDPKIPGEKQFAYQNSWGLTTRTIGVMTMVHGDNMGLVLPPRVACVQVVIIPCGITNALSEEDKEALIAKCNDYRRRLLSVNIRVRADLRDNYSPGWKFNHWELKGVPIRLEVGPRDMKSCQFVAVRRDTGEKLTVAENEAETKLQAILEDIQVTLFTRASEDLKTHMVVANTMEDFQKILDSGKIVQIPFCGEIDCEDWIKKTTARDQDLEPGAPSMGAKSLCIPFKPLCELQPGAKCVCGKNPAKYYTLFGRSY

## NC(=O)Nc1nccnc1C(=O)NC1Cc2ccccc2C1 [compound 23]
[1]
  EC50: 12.1 µM
[2]; Log[inhibitor] (M) -5.000
  dose-response signal (normalized), SI Fig 8: 9.53E-01 and 9.58E-01 and 9.22E-01
[2]; Log[inhibitor] (M) -5.301
  dose-response signal (normalized), SI Fig 8: 9.58E-01 and 1.12E+00 and 1.10E+00
[2]; Log[inhibitor] (M) -5.601
  dose-response signal (normalized), SI Fig 8: 1.05E+00 and 1.01E+00 and 9.67E-01
[2]; Log[inhibitor] (M) -5.904
  dose-response signal (normalized), SI Fig 8: 9.75E-01 and 1.01E+00 and 9.11E-01
[2]; Log[inhibitor] (M) -6.208
  dose-response signal (normalized), SI Fig 8: 1.13E+00 and 1.21E+00 and 1.04E+00
[2]; Log[inhibitor] (M) -6.509
  dose-response signal (normalized), SI Fig 8: 1.02E+00 and 1.09E+00 and 1.04E+00
[2]; Log[inhibitor] (M) -6.796
  dose-response signal (normalized), SI Fig 8: 1.08E+00 and 1.02E+00 and 1.06E+00
[2]; Log[inhibitor] (M) -7.108
  dose-response signal (normalized), SI Fig 8: 9.85E-01 and 1.02E+00 and 9.97E-01
[2]; Log[inhibitor] (M) -7.409
  dose-response signal (normalized), SI Fig 8: 9.53E-01 and 1.06E+00 and 1.07E+00
[2]; Log[inhibitor] (M) -7.710
  dose-response signal (normalized), SI Fig 8: 9.44E-01 and 1.06E+00 and 1.08E+00
[2]; Log[inhibitor] (M) -8.000
  dose-response signal (normalized), SI Fig 8: 9.87E-01 and 9.72E-01 and 1.16E+00
[2]; Log[inhibitor] (M) -8.301
  dose-response signal (normalized), SI Fig 8: 1.10E+00 and 1.12E+00 and 1.02E+00
[2]; Log[inhibitor] (M) -8.602
  dose-response signal (normalized), SI Fig 8: 9.87E-01 and 1.09E+00 and 1.12E+00
[2]; Log[inhibitor] (M) -9.000
  dose-response signal (normalized), SI Fig 8: 1.08E+00 and 9.51E-01 and 1.17E+00
[2]; Log[inhibitor] (M) -9.301
  dose-response signal (normalized), SI Fig 8: 9.82E-01 and 1.20E+00 and 1.04E+00
[3]
  IC50: > 10 µM
[3]; + 100 μM proline, 10 μM
  HsProRS % signal at 10 μM, + 100 μM proline: 78.4%
[3]; Log[inhibitor] (M) -5.000
  normalized TR-FRET ligand displacement signal, dose-response replicates (SI Fig 6): 9.23E-01 and 9.68E-01 and 8.88E-01
  TR-FRET dose-response, normalized signal (SI Fig 11): 8.87E-01 and 8.66E-01 and 9.17E-01
[3]; Log[inhibitor] (M) -5.301
  normalized TR-FRET ligand displacement signal, dose-response replicates (SI Fig 6): 9.33E-01 (2×) and 1.11E+00
  TR-FRET dose-response, normalized signal (SI Fig 11): 9.05E-01 and 8.98E-01 and 9.19E-01
[3]; Log[inhibitor] (M) -5.601
  normalized TR-FRET ligand displacement signal, dose-response replicates (SI Fig 6): 9.64E-01 and 1.03E+00 and 9.59E-01
  TR-FRET dose-response, normalized signal (SI Fig 11): 9.98E-01 and 9.77E-01 and 1.05E+00
[3]; Log[inhibitor] (M) -5.904
  normalized TR-FRET ligand displacement signal, dose-response replicates (SI Fig 6): 1.09E+00 and 1.01E+00 and 9.81E-01
  TR-FRET dose-response, normalized signal (SI Fig 11): 1.00E+00 and 9.89E-01 and 1.01E+00
[3]; Log[inhibitor] (M) -6.208
  normalized TR-FRET ligand displacement signal, dose-response replicates (SI Fig 6): 9.87E-01 and 1.09E+00 and 1.03E+00
  TR-FRET dose-response, normalized signal (SI Fig 11): 9.53E-01 and 1.02E+00 and 9.38E-01
[3]; Log[inhibitor] (M) -6.509
  normalized TR-FRET ligand displacement signal, dose-response replicates (SI Fig 6): 9.55E-01 and 1.02E+00 and 8.65E-01
  TR-FRET dose-response, normalized signal (SI Fig 11): 1.01E+00 and 1.02E+00 and 9.66E-01
[3]; Log[inhibitor] (M) -6.796
  normalized TR-FRET ligand displacement signal, dose-response replicates (SI Fig 6): 1.06E+00 and 9.70E-01 and 9.00E-01
  TR-FRET dose-response, normalized signal (SI Fig 11): 1.06E+00 and 1.02E+00 and 1.01E+00
[3]; Log[inhibitor] (M) -7.108
  normalized TR-FRET ligand displacement signal, dose-response replicates (SI Fig 6): 9.62E-01 and 9.53E-01 and 1.03E+00
  TR-FRET dose-response, normalized signal (SI Fig 11): 9.79E-01 and 1.00E+00 and 1.02E+00
[3]; Log[inhibitor] (M) -7.409
  normalized TR-FRET ligand displacement signal, dose-response replicates (SI Fig 6): 9.73E-01 and 9.58E-01 and 1.07E+00
  TR-FRET dose-response, normalized signal (SI Fig 11): 1.02E+00 (2×) and 1.04E+00
[3]; Log[inhibitor] (M) -7.710
  normalized TR-FRET ligand displacement signal, dose-response replicates (SI Fig 6): 1.04E+00 and 9.48E-01 and 1.10E+00
  TR-FRET dose-response, normalized signal (SI Fig 11): 1.01E+00 and 1.04E+00 and 9.76E-01
[3]; Log[inhibitor] (M) -8.000
  normalized TR-FRET ligand displacement signal, dose-response replicates (SI Fig 6): 1.00E+00 (2×) and 1.06E+00
  TR-FRET dose-response, normalized signal (SI Fig 11): 9.60E-01 and 1.00E+00 (2×)
[3]; Log[inhibitor] (M) -8.301
  normalized TR-FRET ligand displacement signal, dose-response replicates (SI Fig 6): 9.32E-01 and 1.07E+00 and 9.64E-01
  TR-FRET dose-response, normalized signal (SI Fig 11): 1.00E+00 and 9.88E-01 and 1.08E+00
[3]; Log[inhibitor] (M) -8.602
  normalized TR-FRET ligand displacement signal, dose-response replicates (SI Fig 6): 1.06E+00 and 1.00E+00 and 1.07E+00
  TR-FRET dose-response, normalized signal (SI Fig 11): 1.00E+00 and 1.01E+00 and 9.76E-01
[3]; Log[inhibitor] (M) -9.000
  normalized TR-FRET ligand displacement signal, dose-response replicates (SI Fig 6): 1.03E+00 (2×) and 9.79E-01
  TR-FRET dose-response, normalized signal (SI Fig 11): 1.00E+00 and 9.57E-01 and 9.73E-01
[3]; Log[inhibitor] (M) -9.301
  normalized TR-FRET ligand displacement signal, dose-response replicates (SI Fig 6): 1.02E+00 (2×) and 9.65E-01
  TR-FRET dose-response, normalized signal (SI Fig 11): 9.83E-01 and 9.76E-01 and 9.75E-01
[3]; no added proline/ATP (-), 10 μM
  HsProRS % signal at 10 μM: 89.0%
[3]; read-out: HsProRS IC50 + 100 μM proline, + 100 μM proline
  IC50: > 10 µM
